The source of these data is patent US12492403B2, “Aptamers and the use thereof in the treatment of cancer” (FUNDACIÓN PARA LA INVESTIGACIÓN BIOMÉDICA DEL HOSPITAL …, priority 2018, dated 2025).

One data set relates to DNase I. Kind of data set: Stability in the presence of DNase I. Type of data set: in vitro ADME, human. The settings on record: 1 unit of DNase I, 5 minutes at 37° C. Here is the method:
FIGS. 7A and 7B. Stability of apMNKQ2. Chip Experion™ DNA 1K Analysis Kit (BioRad, USA) for analyzing the stability of apMNKQ2 with 1 unit, 0.5 units, and 0.25 units of DNase I (FIG. 7A). In FIG. 7B, the degradation of aptamer apMNKQ2 in human plasma at 0, 6, 16, 24, 48, and 72 hours is depicted.
In the context of the present invention, the term “incubated” is understood to mean being subjected to the assay conditions, specifically to incubation in a buffer with 10 mM Tris HCl, pH 7.5, 2.5 mM MgCl2, and 0.1 mM CaCl2).
In the context of the present invention, the term “1 unit of DNase I” is understood to mean the amount of DNase I which completely degrades 1 μg of DNA in 10 minutes at 37° C.
In the context of the present invention, “DNase I” is understood to mean the deoxyribonuclease-I protein encoded by the human DNASE1 gene. […]
The previously structured aptamer apMNKQ2 (1 μg) was incubated in the presence of 1 unit, 0.5 units, and 0.25 units of the enzyme DNase I (ThermoFisher Scientific, USA) in the buffer supplied by the company (10 mM Tris HCl, pH 7.5, 2.5 mM MgCl2, 0.1 mM CaCl2)) for 5 minutes at 37° C., and the reaction was then stopped by adding 1 μL of 50 mM EDTA (ThermoFisher Scientific, USA) and heating at 65° C. for 10 minutes. […] The samples were analyzed using an Experion™ DNA 1K Analysis Kit chip (BioRad, USA). […]

The subject of another data set is 4T1 cells. Nature of the data set: Transwell migration assay in 4T1 cells. Type of data set: cell-based, mouse. The settings on record: 500 nM, 24 hours migration. Here is the method:
FIG. 21A-21E. In vivo efficacy of apMNKQ2 in a mouse metastatic model with an orthotopic xenograft of 4T1 cells. (A) Effect of apMNKQ2 aptamer on the proliferation of 4T1 cells (mouse breast tumor line). 4T1 cells were seeded in p96 at a density of 1.5×10^3 cells/well. […] The graph (FIG. 21A) represents the means±SEM of 3 independent experiments. (B) Effect of apMNKQ2 aptamer on migration and invasion of 4T1 cells. Cells were seeded in p6 at a density of 2×10^5 cells/well and transfected with 500 nM apMNKQ2 at 24 hours. […] At 24 hours (migration) or 48 h (invasion), the transwell membranes were stained with Hoechst and the cells that had passed through the fluorescence microscopy were quantified. […] The number of metastases is analyzed by the reverse staining method (with Chinese ink) and the metastases grouped according to their size in four groups (0.5, 1, 2 and >2). […]
Cell migration and invasion assays were performed using transwell (Corning, USA). […] After that time, they were collected, counted, and reseeded 4×10^4 cells in 300 μl of a serum-free complete medium inside the transwell (migration) or a transwell on which a layer of 100 μL of Matrigel (Corning, USA) (invasion) had previously been polymerized. […] Finally, two washes in PBS were performed, and 5 photographs of each membrane of the transwell were taken using a fluorescence microscope (Olympus IX70). […]

Regarding “5′TGGGGTGGGCGGGCGGGGGTGGGGGTGGT-3′ (DNA, backbone and methylation of C not given here; further chemistry not fully specified) [apMNKQ2]”, the stability in the data set on DNase I is given as 100%. Further, the “migration of 4T1 cells” value with 4T1 cells is “significantly decrease”.
